Consider one cell line from the supplement of paper PMC10307832.

Holding throughout (test): relative viability (nuclei count vs DMSO), 5 days (fraction); higher = more cells survive
Compound in assay [1]: C1=CC=C(C(=C1)C2=CC=C(C=C2)C3=CSC4=C3C(=C(C(=O)N4)C#N)O)O + CC1(C)CCC(c2ccc(Cl)cc2)=C(CN2CCN(c3ccc(C(=O)NS(=O)(=O)c4ccc(N[C@H](CCN5CCOCC5)CSc5ccccc5)c(S(=O)(=O)C(F)(F)F)c4)cc3)CC2)C1 [Navitoclax] (partner 0.5 µM)
The method, boiled down: (§1)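 Lung cancer cell lines, seeded in 1536-well plates, were treated the following day by pin tool with a single drug or with five library-drug doses (not always all listed) in √10 steps on top of a fixed anchor-drug dose. Cells were fixed and nuclei stained in one step after 5 days, and nuclei were counted. Relative viability is the nuclei count for treated wells divided by that for vehicle wells, reported as medians of duplicate plates.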

Compound in assay [2]: C1=CC=C(C(=C1)C2=CC=C(C=C2)C3=CSC4=C3C(=C(C(=O)N4)C#N)O)O + CS(=O)(=O)N1CCN(Cc2cc3nc(-c4cccc5[nH]ncc45)nc(N4CCOCC4)c3s2)CC1 [Pictilisib] (partner 1 µM)
A digest of the protocol: as §1

Compound in the assay “TGX 221 + Dasatinib”: CC1=CN2C(=O)C=C(N=C2C(=C1)C(C)NC3=CC=CC=C3)N4CCOCC4 [TGX 221] + Cc1nc(Nc2ncc(C(=O)Nc3c(C)cccc3Cl)s2)cc(N2CCN(CCO)CC2)n1 [Dasatinib] (partner 0.075 µM)
The method, boiled down:
as §1

Compound in assay [3]: C1=CC=C(C(=C1)C2=CC=C(C=C2)C3=CSC4=C3C(=C(C(=O)N4)C#N)O)O + Nc1nc2[nH]cc(CCc3ccc(C(=O)N[C@@H](CCC(=O)O)C(=O)O)cc3)c2c(=O)[nH]1 [Pemetrexed] (partner 0.2 µM)
A digest of the protocol: as §1

Compound in the assay “Ricolinostat + Dasatinib”: O=C(CCCCCCNC(=O)c1cnc(N(c2ccccc2)c2ccccc2)nc1)NO [Ricolinostat] + Cc1nc(Nc2ncc(C(=O)Nc3c(C)cccc3Cl)s2)cc(N2CCN(CCO)CC2)n1 [Dasatinib] (partner 0.075 µM)
A digest of the protocol:
as §1

For the cell line NCI-H1792, the relative viability in assay [1] (first compound 0.253 µM) was found to be 0.441; in assay [1] (first compound 0.8 µM), 0.354; in assay [1] (first compound 2.53 µM), 0.704; in assay [1] (first compound 8 µM), 0.276; in assay [2] (first compound 0.253 µM), 0.275; in assay [2] (first compound 0.8 µM), 0.266. The relative viability in assay [2] (first compound 2.53 µM) was 0.19; in assay [2] (first compound 8 µM) it was 0.18; with TGX 221 + Dasatinib (first compound 0.08 µM), 0.831; with TGX 221 + Dasatinib (first compound 0.253 µM) it was 0.699; with TGX 221 + Dasatinib (first compound 0.8 µM) it was 0.785; with TGX 221 + Dasatinib (first compound 2.53 µM), 0.7. Also, the relative viability with TGX 221 + Dasatinib (first compound 8 µM) amounted to 0.503; in assay [3] (first compound 0.253 µM) it was 0.835; in assay [3] (first compound 0.8 µM) it was 0.714; in assay [3] (first compound 2.53 µM), 0.649; in assay [3] (first compound 8 µM) it was 0.477; in the assay with Ricolinostat + Dasatinib (first compound 0.253 µM), 0.829. Besides, the relative viability with Ricolinostat + Dasatinib (first compound 0.8 µM) was found to be 0.718; in the assay with Ricolinostat + Dasatinib (first compound 2.53 µM) it was 0.882.
